Measurements published in ChEMBL document CHEMBL1133313, “Syntheses and antifungal activity of pseudomycin side-chain analogues. Part 1” (2000).
In brackets after ≈: the same amount, converted by molar mass. Positions of bridges follow the written chain, without caps; N, C: chain ends. Non-standard residues stand in square brackets, D forms with d. Residues, ends and D or L forms follow the SMILES beside them. *: point of attachment. Tetradecanoyl(3R-OH) = CCCCCCCCCCC[C@@H](O)CC(=O)*; Asp(3S-OH) = N[C@H](C(=O)O)[C@H](O)C(=O)O; Thr(4-Cl) = N[C@H](C(=O)O)[C@H](O)CCl; aThr = C[C@H](O)[C@H](N)C(=O)O; dDab = NCC[C@@H](N)C(=O)O; Dab = NCC[C@H](N)C(=O)O; Dhb = C/C=C(\N)C(=O)O

Assays:
Format in all cases: functional
[1] = test system: Candida albicans; assay: Lowest concentration required to inhibit 90-100% of the visible growth of Candida albicans when compared to controls
[2] = test system: Aspergillus fumigatus; assay: Lowest concentration required to inhibit the growth of Aspergillus fumigatus
[3] = test system: Candida albicans; assay: Lowest concentration required to inhibit 90-100% of the visible growth of Candida albicans when compared to control; Range is 0.312-0.625

| SMILES | MIC [1] [µg/mL] | MIC [2] [µg/mL] | MIC [3] [µg/mL] |
| --- | --- | --- | --- |
| C/C=C1\NC(=O)[C@H]([C@H](C)O)NC(=O)[C@@H](CCN)NC(=O)[C@@H](CCCCN)NC(=O)[C@@H](CC(=O)O)NC(=O)[C@@H](CCN)NC(=O)[C@@H](NC(=O)C[C@@H](O)c2cccc(CCCCCCCC)c2)COC(=O)[C@@H]([C@H](O)CCl)NC(=O)[C@H]([C@H](O)C(=O)O)NC1=O | > 20 | > 20 |  |
| C/C=C1\NC(=O)[C@H]([C@H](C)O)NC(=O)[C@@H](CCN)NC(=O)[C@@H](CCCCN)NC(=O)[C@@H](CC(=O)O)NC(=O)[C@@H](CCN)NC(=O)[C@@H](NC(=O)C[C@H](O)c2cccc(CCCCCCCCCCCC)c2)COC(=O)[C@@H]([C@H](O)CCl)NC(=O)[C@H]([C@H](O)C(=O)O)NC1=O | 1.25 (≈ 0.963 µM) | 2.5 (≈ 1.93 µM) |  |
| C/C=C1\NC(=O)[C@H]([C@H](C)O)NC(=O)[C@@H](CCN)NC(=O)[C@@H](CCCCN)NC(=O)[C@@H](CC(=O)O)NC(=O)[C@@H](CCN)NC(=O)[C@@H](NC(=O)C[C@@H](O)c2cccc(CCCCCCCCCCCC)c2)COC(=O)[C@@H]([C@H](O)CCl)NC(=O)[C@H]([C@H](O)C(=O)O)NC1=O | 5 (≈ 3.85 µM) | > 20 |  |
| C/C=C1\NC(=O)[C@H]([C@H](C)O)NC(=O)[C@@H](CCN)NC(=O)[C@@H](CCCCN)NC(=O)[C@@H](CC(=O)O)NC(=O)[C@@H](CCN)NC(=O)[C@@H](NC(=O)C[C@@H](O)c2cccc(OCCCCCCCCCCC)c2)COC(=O)[C@@H]([C@H](O)CCl)NC(=O)[C@H]([C@H](O)C(=O)O)NC1=O | 10 (≈ 7.69 µM) | > 20 |  |
| C/C=C1\NC(=O)[C@H]([C@H](C)O)NC(=O)[C@@H](CCN)NC(=O)[C@@H](CCCCN)NC(=O)[C@@H](CC(=O)O)NC(=O)[C@@H](CCN)NC(=O)[C@@H](NC(=O)C[C@@H](O)CCc2cccc(OCCCCC)c2)COC(=O)[C@@H]([C@H](O)CCl)NC(=O)[C@H]([C@H](O)C(=O)O)NC1=O | > 20 | > 20 |  |
| C/C=C1\NC(=O)[C@H]([C@H](C)O)NC(=O)[C@@H](CCN)NC(=O)[C@@H](CCCCN)NC(=O)[C@@H](CC(=O)O)NC(=O)[C@@H](CCN)NC(=O)[C@@H](NC(=O)C[C@H](O)CCc2cccc(OCCCCC)c2)COC(=O)[C@@H]([C@H](O)CCl)NC(=O)[C@H]([C@H](O)C(=O)O)NC1=O | > 20 | > 20 |  |
| C/C=C1\NC(=O)[C@H]([C@@H](C)O)NC(=O)[C@@H](CCN)NC(=O)[C@@H](CCCCN)NC(=O)[C@@H](CC(=O)O)NC(=O)[C@@H](CCN)NC(=O)[C@@H](NC(=O)C[C@H](O)c2cccc(OCCCCCCCCCCC)c2)COC(=O)[C@@H]([C@H](O)CCl)NC(=O)[C@H]([C@H](O)C(=O)O)NC1=O | 0.625 (≈ 0.481 µM) | > 20 |  |
| C/C=C1\NC(=O)[C@H]([C@@H](C)O)NC(=O)[C@@H](CCN)NC(=O)[C@@H](CCCCN)NC(=O)[C@@H](CC(=O)O)NC(=O)[C@@H](CCN)NC(=O)[C@@H](NC(=O)C[C@H](O)c2cccc(CCCCCCCC)c2)COC(=O)[C@@H]([C@H](O)CCl)NC(=O)[C@H]([C@H](O)C(=O)O)NC1=O | 5 (≈ 4.03 µM) | > 20 |  |
| C/C=C1\NC(=O)[C@H]([C@@H](C)O)NC(=O)[C@@H](CCN)NC(=O)[C@@H](CCCCN)NC(=O)[C@@H](CC(=O)O)NC(=O)[C@@H](CCN)NC(=O)[C@@H](NC(=O)CC(O)Cc2cccc(OCCCCCC)c2)COC(=O)[C@@H]([C@H](O)CCl)NC(=O)[C@H]([C@H](O)C(=O)O)NC1=O (stereo not given in full) | > 20 | > 20 |  |
| C/C=C1\NC(=O)[C@H]([C@@H](C)O)NC(=O)[C@@H](CCN)NC(=O)[C@@H](CCCCN)NC(=O)[C@@H](CC(=O)O)NC(=O)[C@@H](CCN)NC(=O)[C@@H](NC(=O)CC(O)CCc2cccc(OCCCCCCCCC)c2)COC(=O)[C@@H]([C@H](O)CCl)NC(=O)[C@H]([C@H](O)C(=O)O)NC1=O (stereo not given in full) | 20 (≈ 15.4 µM) | > 20 |  |
| C/C=C1\NC(=O)[C@H]([C@@H](C)O)NC(=O)[C@@H](CCN)NC(=O)[C@@H](CCCCN)NC(=O)[C@@H](CC(=O)O)NC(=O)[C@@H](CCN)NC(=O)[C@@H](NC(=O)CC(O)CCc2cccc(OCCCCCCC)c2)COC(=O)[C@@H]([C@H](O)CCl)NC(=O)[C@H]([C@H](O)C(=O)O)NC1=O (stereo not given in full) | 10 (≈ 7.86 µM) | > 20 |  |
| C/C=C1\NC(=O)[C@H]([C@@H](C)O)NC(=O)[C@@H](CCN)NC(=O)[C@@H](CCCCN)NC(=O)[C@@H](CC(=O)O)NC(=O)[C@@H](CCN)NC(=O)[C@@H](NC(=O)CC(O)Cc2cccc(OCCCCCCCCCC)c2)COC(=O)[C@@H]([C@H](O)CCl)NC(=O)[C@H]([C@H](O)C(=O)O)NC1=O (stereo not given in full) | 15 (≈ 11.5 µM) | > 20 |  |
| C/C=C1\NC(=O)[C@H]([C@@H](C)O)NC(=O)[C@@H](CCN)NC(=O)[C@@H](CCCCN)NC(=O)[C@@H](CC(=O)O)NC(=O)[C@@H](CCN)NC(=O)[C@@H](NC(=O)CC(O)Cc2cccc(OCCCCCCCC)c2)COC(=O)[C@@H]([C@H](O)CCl)NC(=O)[C@H]([C@H](O)C(=O)O)NC1=O (stereo not given in full) | > 20 | > 20 |  |
| C/C=C1\NC(=O)[C@H]([C@@H](C)O)NC(=O)[C@@H](CCN)NC(=O)[C@@H](CCCCN)NC(=O)[C@@H](CC(=O)O)NC(=O)[C@@H](CCN)NC(=O)[C@@H](NC(=O)CC(O)CCc2cccc(OCCCCC)c2)COC(=O)[C@@H]([C@H](O)CCl)NC(=O)[C@H]([C@H](O)C(=O)O)NC1=O (stereo not given in full) | > 20 | > 20 |  |
| C/C=C1\NC(=O)[C@H]([C@H](C)O)NC(=O)[C@H](CCN)NC(=O)[C@H](CCCCN)NC(=O)[C@H](CC(=O)O)NC(=O)[C@@H](CCN)NC(=O)[C@@H](NC(=O)C[C@H](O)CCCCCCCCCCC)COC(=O)[C@H]([C@H](O)CCl)NC(=O)[C@H]([C@H](O)C(=O)O)NC1=O ({Tetradecanoyl(3R-OH)}-S[dDab]DK[Dab][aThr][Dhb][Asp(3S-OH)][Thr(4-Cl)]; ester 1-C) |  | > 20 | 0.625 (≈ 0.517 µM) |
